# Results reported in article PMC9867837 (Cancer letters, 2022).
# Assays:
# MDA-MB-231 cells = experiment: Soft-agar colony formation; type: cell-based, human; settings: 0.3–2 μM H182
# Method: These studies were performed as previously reported. Details are presented in Supplementary Information, “Methods”.
# These studies were performed as previously reported . For the clonogenic survival assay, briefly, cells were seeded as single-cell (500 cells per well) in 6 -well plates, then untreated (DMSO control) or treated once the following day with H182 and allowed to grow until large colonies were visible, which were stained with crystal violet for 4 h and imaged with a FluorChem imaging system (Protein Simple, Santa Clara, CA).
# For the soft-agar assay, briefly, each well contained a bottom layer of 1 ml of 1% agarose in complete DMEM and a top layer of 1 ml of 0.5% agarose in complete DMEM containing 500 cells. After the upper agar layer containing cells solidified, 1 ml culture medium containing H182 (0-2 µM) or DMSO (control) was overlaid, and the cultures were maintained at 37 °C in the incubator, with the medium replacement every 3-4 days with fresh medium that contains the inhibitor or not. Cells were allowed to culture for 3-4 weeks until large colonies were visible under microscope. The colonies were stained with crystal violet and […]
# 1.2.8. Confocal microscopy studies
# 4 cells in 1 ml) in logarithmic
# These studies were performed as previously reported. […]
# pYStat3C328A = biological target: T1, pYStat3C328A (Homo sapiens, UniProt P40763, C328A); experiment: EMSA with purified mutant pYStat3C328A; type: biochemical; settings: 3 μM H182, 30 min
# T1 construct: made in house; host or cells: E. coli BL21(DE3) TKB1 (inducible tyrosine kinase)
# T1 sequence (P40763 127-711 C328A): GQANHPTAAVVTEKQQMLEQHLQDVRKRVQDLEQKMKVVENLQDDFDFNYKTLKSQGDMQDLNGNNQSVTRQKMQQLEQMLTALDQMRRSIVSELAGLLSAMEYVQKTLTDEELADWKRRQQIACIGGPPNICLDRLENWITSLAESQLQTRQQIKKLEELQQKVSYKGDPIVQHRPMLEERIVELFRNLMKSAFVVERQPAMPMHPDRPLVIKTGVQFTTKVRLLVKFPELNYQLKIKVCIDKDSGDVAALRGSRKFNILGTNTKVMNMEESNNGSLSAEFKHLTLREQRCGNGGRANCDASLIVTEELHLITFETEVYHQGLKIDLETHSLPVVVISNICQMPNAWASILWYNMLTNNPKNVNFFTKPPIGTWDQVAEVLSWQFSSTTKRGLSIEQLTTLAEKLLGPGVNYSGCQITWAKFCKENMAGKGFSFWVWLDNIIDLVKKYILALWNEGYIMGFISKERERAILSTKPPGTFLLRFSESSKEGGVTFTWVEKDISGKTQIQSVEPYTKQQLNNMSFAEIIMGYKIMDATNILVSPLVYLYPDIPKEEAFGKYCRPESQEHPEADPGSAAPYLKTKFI
# Excerpt: (§1) This construct was used to generate the mutants, Stat3C328A, Stat3C426A, Stat3C468A, and Stat3C542S, as described in detail in Supplementary Information “Methods”.
# (§2) The expression of un-phosphorylated and tyrosine phosphorylated His-tagged recombinant wtStat3 and mutant Stat3 proteins in BL21 (DE3) bacterial cells is described in detail in Supplementary Information “Methods”.
# (§3) Given the MS data, we conducted site-directed mutagenesis analysis for the effects of Cys mutations (Cys-to-Ala or Cys-to-Ser mutations) on the inhibitory activities or potencies of the compounds. […]
# (§4) In another case, the nuclear extract was pre-incubated with the radiolabeled probe for 30 min at 30 °C prior to incubation with increasing concentration of H182 at room temperature for 30 min and subjecting to EMSA analysis. Bands corresponding to Stats DNA- binding activities were scanned and quantified using ImageJ and plotted as a percentage of control (vehicle) against the concentration of the inhibitor, from which the IC50 values were derived . […]
# (§5) These studies were performed as previously reported using the v-Src -transformed NIH3T3/v-Src fibroblasts [1 -5] . […] Luciferase activity was normalized to total protein concentration of cell lysate, which was determined by Bradford assay (Bio-Rad, Hercules, CA) . […]
# wtpYStat3 = biological target: T2, wtpYStat3 (Homo sapiens, UniProt P40763); experiment: EMSA with purified wild-type pYStat3; type: biochemical; settings: 3 μM H182, 30 min
# T2 construct: made in house; host or cells: E. coli BL21(DE3) TKB1 (inducible tyrosine kinase)
# T2 sequence (P40763 127-711): as the sequence (P40763 127-711 C328A) above, with A202C counted along it
# Excerpt: as §1, §2, §3, §4, §5
# [1] = Human liver microsome stability; type: in vitro ADME; settings: liver microsomes, read-out: Metabolic Stability HLM t1/2
# Method: Solubility, human (HLM) and mouse liver microsomal (MLM), and plasma stability studies were performed by Eurofins Cerep Panlabs and Eurofin Discovery Services (www.eurofins.com/PharmaDiscovery), while protein binding studies were performed by Sanford Burnham Prebys Chemical Biology & Drug Discovery Core using standard protocols.
smiles,measurement,setting,value
O=C([C@H]1CCN1S(=O)(=O)c1c(F)c(F)c(F)c(F)c1F)N(Cc1ccc(C2CCCCC2)cn1)c1ccc2c(=O)[nH]ncc2c1 [Compound H182],Effect on anchorage-independent growth in soft-agar,MDA-MB-231 cells,potently and dose-dependently inhibited
same,Effect on DNA-binding activity of pYStat3C328A,pYStat3C328A,strong inhibition
same,Effect on DNA-binding activity of wtpYStat3,wtpYStat3,strong inhibition
same,half-life,[1],21 min
